Experimental data from patent publication US8962674B2 (Tokyo Institute of Technology, priority 2006, dated 2015).

Row | Compound | melting point
1 | COc1cc(/C=C/C(=O)CC(=O)/C=C/c2ccc3c(c2)OCCO3)ccc1O [CU209, (1E,6E)-1-(2,3-dihydrobenzo[1,4]dioxin-6-yl)-7-(4-hydroxy-3-methoxyphenyl)hepta-1,6-diene-3,5-dione] | 141 to 145 °C
2 | COc1ccc(/C=C/C(=O)CC(=O)/C=C/c2ccc3c(c2)OCCO3)cc1O [CU210, (1E,6E)-1-(2,3-dihydrobenzo[1,4]dioxin-6-yl)-7-(3-hydroxy-4-methoxyphenyl)hepta-1,6-diene-3,5-dione] | 163 to 165 °C
3 | COc1ccc(/C=C/C(=O)CC(=O)/C=C/c2ccco2)cc1O [CU211, (1E,6E)-1-(furan-2-yl)-7-(3-hydroxy-4-methoxyphenyl)hepta-1,6-diene-3,5-dione] | 120 to 123 °C
4 | COc1ccc(/C=C/C(=O)CC(=O)/C=C/c2cccs2)cc1O [CU212, (1E,6E)-1-(3-hydroxy-4-methoxyphenyl)-7-(thiophen-2-yl)hepta-1,6-diene-3,5-dione] | 128 to 133 °C
5 | O=C(/C=C/c1ccc(O)cc1)CC(=O)/C=C/c1ccc(Oc2ccccc2)cc1 [CU213, (1E,6E)-1-(4-hydroxyphenyl)-7-(4-phenoxyphenyl)hepta-1,6-diene-3,5-dione] | 175 to 178 °C
6 | COc1ccc(/C=C/C(=O)CC(=O)/C=C/c2ccc(SC)cc2)cc1O [CU216, (1E,6E)-1-(3-hydroxy-4-methoxyphenyl)-7-(4-methylthiophenyl)hepta-1,6-diene-3,5-dione] | 158 to 162 °C
7 | COc1ccc(/C=C/C(=O)CC(=O)/C=C/c2cccnc2)cc1O [CU217, (1E,6E)-1-(3-hydroxy-4-methoxyphenyl)-7-(pyridin-3-yl)hepta-1,6-diene-3,5-dione] | 174 to 175 °C
8 | COc1ccc(/C=C/C(=O)CC(=O)/C=C/c2ccccn2)cc1O [CU218, (1E,6E)-1-(3-hydroxy-4-methoxyphenyl)-7-(pyridin-2-yl)hepta-1,6-diene-3,5-dione] | 182 to 187 °C
9 | COc1ccc(/C=C/C(=O)CC(=O)/C=C/c2ccc(Oc3ccccc3)cc2)cc1O [CU219, (1E,6E)-1-(3-hydroxy-4-methoxyphenyl)-7-(4-phenoxyphenyl)hepta-1,6-diene-3,5-dione] | 185 to 187 °C
10 | COc1ccc(/C=C/C(=O)CC(=O)/C=C/c2cccc(Oc3ccccc3)c2)cc1O [CU220, (1E,6E)-1-(3-hydroxy-4-methoxyphenyl)-7-(3-phenoxyphenyl)hepta-1,6-diene-3,5-dione] | 148 to 150 °C
11 | CN(C)CCCOc1ccc(/C=C/C(=O)CC(=O)/C=C/c2ccc(O)cc2)cc1 [CU236, (1E,6E)-1-[4-(3-dimethylaminopropoxy)phenyl]-7-(4-hydroxyphenyl)hepta-1,6-diene-3,5-dione] | 140 to 143 °C
12 | COc1ccc(/C=C/C(=O)CC(=O)/C=C/c2ccc(OCCCN(C)C)cc2)cc1O [CU241, (1E,6E)-1-[4-(3-dimethylaminopropoxy)phenyl]-7-(3-hydroxy-4-methoxyphenyl)hepta-1,6-diene-3,5-dione] | 183 to 186 °C
13 | COCOc1cccc(O)c1/C=C/C(=O)CC(=O)/C=C/c1ccc(O)c(OC)c1 [CU259, (1E,6E)-1-[2-hydroxy-6-(methoxymethoxy)phenyl]-7-(4-hydroxy-3-methoxyphenyl)hepta-1,6-diene-3,5-dione] | 76 to 81 °C
14 | CCn1c2ccccc2c2cc(/C=C/C(=O)CC(=O)/C=C/c3ccc4c(c3)c3ccccc3n4CC)ccc21 [CU263, (1E,6E)-1,7-bis(9-ethyl-9H-carbazol-3-yl)hepta-1,6-diene-3,5-dione] | 264 to 267 °C
15 | COc1cc(/C=C/C(=O)CC(=O)/C=C/c2c(O)cccc2OC)ccc1O [CU279, (1E,6E)-1-(2-hydroxy-6-methoxyphenyl)-7-(4-hydroxy-3-methoxyphenyl)hepta-1,6-diene-3,5-dione] | 161 to 164 °C
16 | COc1ccc(/C=C/C(=O)CC(=O)/C=C/c2c(O)cccc2OC)cc1O [CU280, (1E,6E)-1-(2-hydroxy-6-methoxyphenyl)-7-(3-hydroxy-4-methoxyphenyl)hepta-1,6-diene-3,5-dione] | 181 to 185 °C

Further lines, results first:

Row | melting point | Compound
17 | 205 to 209 °C | CN(C)c1ccc(/C=C/C(=O)CC(=O)/C=C/c2ccc(O)cc2)cc1 [CU207, (1E,6E)-1-(4-dimethylaminophenyl)-7-(4-hydroxyphenyl)hepta-1,6-diene-3,5-dione]
18 | 194 to 198 °C | O=C(/C=C/c1ccc(O)cc1)CC(=O)/C=C/c1cccc(Oc2ccccc2)c1 [CU214, (1E,6E)-1-(4-hydroxyphenyl)-7-(3-phenoxyphenyl)hepta-1,6-diene-3,5-dione]
19 | 197 to 200 °C | O=C(/C=C/c1ccc(O)cc1)CC(=O)/C=C/c1ccc2c(c1)OCO2 [CU215, (1E,6E)-1-(benzo[1,3]dioxol-5-yl)-7-(4-hydroxyphenyl)hepta-1,6-diene-3,5-dione]
20 | 169 to 173 °C | O=C(/C=C/c1ccc(O)cc1)CC(=O)/C=C/c1ccc2c(c1)OCCO2 [CU232, (1E,6E)-1-(2,3-dihydrobenzo[1,4]dioxin-6-yl)-7-(4-hydroxyphenyl)hepta-1,6-diene-3,5-dione]
21 | 180 to 182 °C | O=C(/C=C/c1ccc(O)cc1)CC(=O)/C=C/c1ccccn1 [CU233, (1E,6E)-1-(4-hydroxyphenyl)-7-(pyridin-2-yl)hepta-1,6-diene-3,5-dione]
22 | 169 to 171 °C | CSc1ccc(/C=C/C(=O)CC(=O)/C=C/c2ccc(O)cc2)cc1 [CU235, (1E,6E)-1-(4-hydroxyphenyl)-7-(4-methylthiophenyl)hepta-1,6-diene-3,5-dione]
23 | 158 to 161 °C | COCOc1c(O)cccc1/C=C/C(=O)CC(=O)/C=C/c1ccc(O)cc1 [CU247, (1E,6E)-1-[3-hydroxy-2-(methoxymethoxy)phenyl]-7-(4-hydroxyphenyl)hepta-1,6-diene-3,5-dione]
24 | 79 to 83 °C | COCOc1c(O)cccc1/C=C/C(=O)CC(=O)/C=C/c1ccc(OC)c(O)c1 [CU248, (1E,6E)-1-[3-hydroxy-2-(methoxymethoxy)phenyl]-7-(3-hydroxy-4-methoxyphenyl)hepta-1,6-diene-3,5-dione]
25 | 169 to 175 °C | COc1cccc(/C=C/C(=O)CC(=O)/C=C/c2ccc(O)cc2)c1O [CU249, (1E,6E)-1-(2-hydroxy-3-methoxyphenyl)-7-(4-hydroxyphenyl)hepta-1,6-diene-3,5-dione]
26 | 156 to 158 °C | COc1cc(/C=C/C(=O)CC(=O)/C=C/c2cccc(OC)c2O)ccc1O [CU250, (1E,6E)-1-(2-hydroxy-3-methoxyphenyl)-7-(4-hydroxy-3-methoxyphenyl)hepta-1,6-diene-3,5-dione]
27 | 137 to 139 °C | COc1ccc(/C=C/C(=O)CC(=O)/C=C/c2ccc(O)cc2)c(O)c1 [CU251, (1E,6E)-1-(2-hydroxy-4-methoxyphenyl)-7-(4-hydroxyphenyl)hepta-1,6-diene-3,5-dione]
28 | 167 to 170 °C | COc1ccc(O)c(/C=C/C(=O)CC(=O)/C=C/c2ccc(O)cc2)c1 [CU253, (1E,6E)-1-(2-hydroxy-5-methoxyphenyl)-7-(4-hydroxyphenyl)hepta-1,6-diene-3,5-dione]
29 | 108 to 113 °C | COc1ccc(/C=C/C(=O)CC(=O)/C=C/c2ccc(O)c(OC)c2)c(O)c1 [CU256, (1E,6E)-1-(2-hydroxy-4-methoxyphenyl)-7-(4-hydroxy-3-methoxyphenyl)hepta-1,6-diene-3,5-dione]
30 | 99 to 108 °C | COc1cc(/C=C/C(=O)CC(=O)/C=C/c2ccc(O)cc2O)ccc1O [CU257, (1E,6E)-1-(2,4-dihydroxyphenyl)-7-(4-hydroxy-3-methoxyphenyl)hepta-1,6-diene-3,5-dione]
31 | 104 to 109 °C | COc1ccc(/C=C/C(=O)CC(=O)/C=C/c2ccc(O)cc2O)cc1O [CU258, (1E,6E)-1-(2,4-dihydroxyphenyl)-7-(3-hydroxy-4-methoxyphenyl)hepta-1,6-diene-3,5-dione]
32 | 173 to 176 °C | O=C(/C=C/c1ccc(O)cc1)CC(=O)/C=C/c1cccc(O)c1O [CU264, (1E,6E)-1-(2,3-dihydroxyphenyl)-7-(4-hydroxyphenyl)hepta-1,6-diene-3,5-dione]
33 | 170 to 172 °C | COc1ccc(/C=C/C(=O)CC(=O)/C=C/c2cccc(O)c2O)cc1O [CU265, (1E,6E)-1-(2,3-dihydroxyphenyl)-7-(3-hydroxy-4-methoxyphenyl)hepta-1,6-diene-3,5-dione]
34 | 155 to 157 °C | COc1ccc(/C=C/C(=O)CC(=O)/C=C/c2cccc(OC)c2O)cc1O [CU273, (1E,6E)-1-(2-hydroxy-3-methoxyphenyl)-7-(3-hydroxy-4-methoxyphenyl)hepta-1,6-diene-3,5-dione]
35 | 94 to 99 °C | COc1cccc(O)c1/C=C/C(=O)CC(=O)/C=C/c1ccc(O)cc1 [CU275, (1E,6E)-1-(2-hydroxy-6-methoxyphenyl)-7-(4-hydroxyphenyl)hepta-1,6-diene-3,5-dione]
36 | 212 to 214 °C | COc1ccc(/C=C/C(=O)CC(=O)/C=C/c2cc(Cl)cc(Cl)c2O)cc1O [CU276, (1E,6E)-1-(3,5-dichloro-2-hydroxyphenyl)-7-(3-hydroxy-4-methoxyphenyl)hepta-1,6-diene-3,5-dione]
37 | 89 to 92 °C | CCN(CC)c1ccc(/C=C/C(=O)CC(=O)/C=C/c2ccc(O)c(OC)c2)c(O)c1 [CU277, (1E,6E)-1-(4-diethylamino-2-hydroxyphenyl)-7-(4-hydroxy-3-methoxyphenyl)hepta-1,6-diene-3,5-dione]
38 | 101 to 108 °C | CCN(CC)c1ccc(/C=C/C(=O)CC(=O)/C=C/c2ccc(OC)c(O)c2)c(O)c1 [CU278, (1E,6E)-1-(4-diethylamino-2-hydroxyphenyl)-7-(3-hydroxy-4-methoxyphenyl)hepta-1,6-diene-3,5-dione]
39 | 199 to 201 °C | O=C(/C=C/c1ccc(O)cc1)CC(=O)/C=C/c1cc(Cl)cc(Cl)c1O [CU281, (1E,6E)-1-(3,5-dichloro-2-hydroxyphenyl)-7-(4-hydroxyphenyl)hepta-1,6-diene-3,5-dione]
40 | 147 to 152 °C | COc1ccc(/C=C/C(=O)CC(=O)/C=C/c2ccc(OC)c(O)c2)c(O)c1 [CU282, (1E,6E)-1-(2-hydroxy-4-methoxyphenyl)-7-(3-hydroxy-4-methoxyphenyl)hepta-1,6-diene-3,5-dione]
